In brackets after ≈: the same amount, converted by molar mass. Where two headings read alike, the source gives them in different places.
Columns and labels:
Type in all cases: cell-based
[1] = system: Klebsiella pneumoniae CMY-DHA; test: Synergistic activity: MIC in the presence of Avibactam; settings: row r32, in the presence of Avibactam @ 4 μg/mL
Procedure: (§1) Isolates were sub-cultured onto appropriate media and stocked in skim milk at −80° C. Following two subcultures from frozen stock, in vitro antimicrobial susceptibility testing was performed using the Clinical and Laboratory Standards Institute (CLSI) broth microdilution method. Briefly, fresh cultures were suspended in culture media to give a final stock inoculum size of 5×10^7 colony forming units per milliliter of broth (CFU/mL). Test compounds were prepared at a stock solution concentration equal to 128 μg/mL, then diluted to give a final an initial working concentration of 32 μg/mL. 100 μL of the stock solutions were added to the first wells in a 96-well plate and were then diluted using a 2-fold dilution method to give a range of 32-0.025 μg/mL. 100 μL of the bacterial suspensions were then added to the 96-well plates to give a final working inoculum size of 5×10^5 CFU/mL. The final compound concentration range was 16-0.0125 μg/mL. […] MICs for comparator agents were determined using custom-designed, in-house prepared 96-well broth microdilution panels.
The same method used to test the activity of the claimed compounds was used to determine their synergistic activity when combined with a β-lactamase inhibitor except that either a fixed concentration or fixed ratio of a β-lactamase inhibitor was added to the 96-well plates prior to adding the bacteria cultures. Synergistic activity was defined as the reduction of MIC of a given compound when tested using the β-lactamase inhibitor versus testing the compound in the absence of a β-lactamase inhibitor.

[2] = system: Klebsiella pneumoniae CMY-DHA; test: MIC against CMY-DHA producing strains, compound alone; settings: row r32
Procedure: (§2) Gram-negative and Gram-positive bacterial strains used during the in vitro minimum inhibitory concentration (MIC) determination were obtained either from the American Type Culture Collection (ATCC) or from clinical specimens. All strains were characterized genotypically and the respective antibiotic resistance markers for each strain were identified.
as §1

[3] = system: Escherichia coli CMY-DHA; test: as above
Procedure: as §2, §1

[4] = system: Proteus mirabilis CMY-DHA; test: as above; settings: row r36
Procedure: as §2, §1

[5] = system: Escherichia coli Elevated AmpC; test: MIC against Elevated AmpC producing strains, compound alone
Procedure: as §2, §1

[6] = system: Enterobacter cloacae species complex Elevated AmpC; test: as above
Procedure: as §2, §1

[7] = system: Citrobacter freundii species complex Elevated AmpC; test: as above; settings: row r16
Procedure: as §2, §1

[8] = system: Citrobacter freundii species complex OXA-181; test: MIC, CLSI broth microdilution; settings: Citrobacter freundii species complex, OXA-181; read-out: MIC
Outline: (§3)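 The read-out is the minimum inhibitory concentration determined by CLSI broth microdilution. Final compound levels ran from 16 to 0.0125 μg/mL in two-fold steps against about 5×10^5 CFU/mL of genotypically characterized bacteria.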

[9] = system: Klebsiella pneumoniae OXA-163, OXA-1_OXA-30, SHV-1, TEM-1; test: MIC, CLSI broth microdilution
Outline: (§4)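 Inhibitory concentrations were measured in broth following CLSI microdilution rules. Test organisms, each with known resistance determinants, were inoculated at a final 5×10^5 CFU/mL into wells holding compound at final concentrations from 16 down to 0.0125 μg/mL.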

[10] = system: Klebsiella oxytoca KPC-2, TEM-1; test: MIC, CLSI broth microdilution; settings: KPC-2, TEM-1, read-out: MIC
Outline: as §3

[11] = system: Klebsiella pneumoniae KPC-3; test: MIC, CLSI broth microdilution; settings: KPC3, KPC-3, read-out: MIC
Outline: as §3

[12] = system: Serratia marcescens SME-2; test: MIC, CLSI broth microdilution; settings: SME2
Outline: as §3

[13] = system: Pseudomonas aeruginosa OprD negative; test: MIC, CLSI broth microdilution
Outline: as §4

[14] = system: Pseudomonas aeruginosa AmpC overexpressed; test: MIC, CLSI broth microdilution
Outline: as §4

[15] = system: Escherichia coli ATCC 25922; test: MIC, CLSI broth microdilution; settings: ATCC25922
Outline: as §3

[16] = system: Pseudomonas aeruginosa ATCC 27853; test: MIC, CLSI broth microdilution; settings: ATCC27853
Outline: as §3

[17] = system: Escherichia coli CMY-2; test: MIC, CLSI broth microdilution; settings: CMY2
Outline: as §3

[18] = system: Klebsiella pneumoniae SHV-12; test: MIC, CLSI broth microdilution; settings: SHV12, SHV-12, read-out: MIC
Outline: as §3

[19] = system: Klebsiella aerogenes VIM-1, SHV-12; test: MIC, CLSI broth microdilution
Outline: as §3

[20] = system: Serratia marcescens AmpC overexpressed; test: MIC, CLSI broth microdilution
Outline: as §4

[21] = system: Acinetobacter baumannii ATCC 19606; test: MIC, CLSI broth microdilution; settings: ATCC19606
Outline: as §3

[22] = system: Klebsiella pneumoniae OXA-48, SHV-1; test: MIC, CLSI broth microdilution
Outline: as §4

[23] = system: Escherichia coli CTX-M-15; test: MIC, CLSI broth microdilution; settings: CTXM15
Outline: as §3

[24] = system: Escherichia coli SHV-12; test: MIC, CLSI broth microdilution; settings: SHV12
Outline: as §3

[25] = system: Enterobacter cloacae species complex NDM-1; test: MIC, CLSI broth microdilution
Outline: as §3

[26] = system: Klebsiella pneumoniae KPC-2; test: MIC, CLSI broth microdilution; settings: KPC2
Outline: as §3

| Structure (SMILES) | MIC [1] [µg/mL] | MIC [2] [µg/mL] | MIC ([3]; strain of row r26) [µg/mL] | MIC ([3]; strain of row r27) [µg/mL] | MIC ([3]; strain of row r28) [µg/mL] | MIC ([3]; strain of row r29) [µg/mL] | MIC ([3]; strain of row r30) [µg/mL] | MIC ([3]; strain of row r31) [µg/mL] | MIC ([3]; strain of row r34) [µg/mL] | MIC ([3]; strain of row r35) [µg/mL] | MIC [4] [µg/mL] | MIC ([5]; strain of row r10) [µg/mL] | MIC ([5]; strain of row r11) [µg/mL] | MIC ([5]; strain of row r12) [µg/mL] | MIC ([5]; strain of row r13) [µg/mL] | MIC ([5]; strain of row r14) [µg/mL] | MIC ([5]; strain of row r15) [µg/mL] | MIC [6] [µg/mL] | MIC ([6]; strain of row r7) [µg/mL] | MIC ([6]; strain of row r20) [µg/mL] | also measured |
| --- | --- | --- | --- | --- | --- | --- | --- | --- | --- | --- | --- | --- | --- | --- | --- | --- | --- | --- | --- | --- | --- |
| Nc1nc(/C(=N/OC2(C(=O)O)CCOCC2)C(=O)N[C@H]2CON(C3(C(=O)O)C[C@H](N4C(=O)c5cc(O)c(O)nc5C4=O)C(=O)O3)C2=O)cs1 (stereo partly drawn) [Cmpd 26, 4-({(Z)-[1-(2-amino-1,3-thiazol-4-yl)-2-({(4S)-2-[(4S)-2-carboxy-4-(2,3-dihydroxy-5,7-dioxo-5,7-dihydro-6H-pyrrolo[3,4-b]pyridin-6-yl)-5-oxooxolan-2-yl]-3-oxo-1,2-oxazolidin-4-yl}amino)-2-oxoethylidene]amino}oxy)oxane-4-carboxylic acid] | 0.5 | 4 (≈ 5.67 µM) | 2 (≈ 2.83 µM) | 0.25 (≈ 0.354 µM) | 1 (≈ 1.42 µM) | 2 (≈ 2.83 µM) | 1 (≈ 1.42 µM) | 8 (≈ 11.3 µM) | 1 (≈ 1.42 µM) | 1 (≈ 1.42 µM) | 4 (≈ 5.67 µM) | 0.06 (≈ 0.085 µM) | 0.5 (≈ 0.709 µM) | 2 (≈ 2.83 µM) | 0.06 (≈ 0.085 µM) | 0.12 (≈ 0.17 µM) | 0.5 (≈ 0.709 µM) | 2 (≈ 2.83 µM) | 4 (≈ 5.67 µM) | 1 (≈ 1.42 µM) | MIC [7]: 1 µg/mL (≈ 1.42 µM); MIC [8]: 0.25 µg/mL (≈ 0.354 µM); MIC [9]: 0.12 µg/mL (≈ 0.17 µM); MIC [10]: 0.0149 µg/mL (≈ 0.0211 µM); MIC [11]: 0.12 µg/mL (≈ 0.17 µM); MIC [12]: 0.5 µg/mL (≈ 0.709 µM); MIC [13]: 2 µg/mL (≈ 2.83 µM); MIC [14]: 4 µg/mL (≈ 5.67 µM); MIC [15]: 0.5 µg/mL (≈ 0.709 µM); MIC [16]: 2 µg/mL (≈ 2.83 µM); MIC [17]: 4 µg/mL (≈ 5.67 µM); MIC [18]: 0.06 µg/mL (≈ 0.085 µM); MIC [19]: 0.25 µg/mL (≈ 0.354 µM); MIC [20]: 0.5 µg/mL (≈ 0.709 µM); MIC [21]: 1 µg/mL (≈ 1.42 µM); MIC [22]: 0.0149 µg/mL (≈ 0.0211 µM); MIC [23]: 4 µg/mL (≈ 5.67 µM); MIC [24]: 4 µg/mL (≈ 5.67 µM); MIC [25]: 2 µg/mL (≈ 2.83 µM); MIC [26]: 0.0149 µg/mL (≈ 0.0211 µM) |
| Nc1nc(/C(=N/OC2(C(=O)O)CC2)C(=O)N[C@H]2CON(C3(C(=O)O)C[C@H](N4Cc5cc(O)c(O)cc5C4=O)C(=O)O3)C2=O)cs1 (stereo partly drawn) [Cmpd 28, (4S)-2-[(4S)-4-{[(2Z)-2-(2-amino-1,3-thiazol-4-yl)-2-{[(1-carboxycyclopropyl)oxy]imino}acetyl]amino}-3-oxo-1,2-oxazolidin-2-yl]-4-(5,6-dihydroxy-1-oxo-1,3-dihydro-2H-isoindol-2-yl)-5-oxooxolane-2-carboxylic acid] | 0.12 | 2 (≈ 3.09 µM) | 4 (≈ 6.19 µM) | 0.25 (≈ 0.387 µM) | 0.5 (≈ 0.773 µM) | 4 (≈ 6.19 µM) | 1 (≈ 1.55 µM) | 8 (≈ 12.4 µM) | 1 (≈ 1.55 µM) | 2 (≈ 3.09 µM) | 2 (≈ 3.09 µM) | 0.06 (≈ 0.0928 µM) | 0.5 (≈ 0.773 µM) | 1 (≈ 1.55 µM) | 0.25 (≈ 0.387 µM) | 0.12 (≈ 0.186 µM) | 1 (≈ 1.55 µM) | 2 (≈ 3.09 µM) | 8 (≈ 12.4 µM) | 1 (≈ 1.55 µM) | MIC [7]: 1 µg/mL (≈ 1.55 µM); MIC [8]: 0.12 µg/mL (≈ 0.186 µM); MIC [9]: 0.25 µg/mL (≈ 0.387 µM); MIC [10]: 0.0149 µg/mL (≈ 0.023 µM); MIC [11]: 0.25 µg/mL (≈ 0.387 µM); MIC [12]: 0.12 µg/mL (≈ 0.186 µM); MIC [13]: 0.5 µg/mL (≈ 0.773 µM); MIC [14]: 2 µg/mL (≈ 3.09 µM); MIC [15]: 0.25 µg/mL (≈ 0.387 µM); MIC [16]: 1 µg/mL (≈ 1.55 µM); MIC [17]: 8 µg/mL (≈ 12.4 µM); MIC [18]: 0.06 µg/mL (≈ 0.0928 µM); MIC [19]: 0.12 µg/mL (≈ 0.186 µM); MIC [20]: 0.25 µg/mL (≈ 0.387 µM); MIC [21]: 0.12 µg/mL (≈ 0.186 µM); MIC [22]: 0.0149 µg/mL (≈ 0.023 µM); MIC [23]: 1 µg/mL (≈ 1.55 µM); MIC [24]: 0.5 µg/mL (≈ 0.773 µM); MIC [25]: 2 µg/mL (≈ 3.09 µM); MIC [26]: 0.0149 µg/mL (≈ 0.023 µM) |
